The structures appear in SMILES notation.

The subject of data set [1] is human pulmonary artery endothelial cells (hPAECs). Nature of the data set: CyQUANT Direct Assay (proliferation), hPAEC. The format is cell-based. To be noted: Homo sapiens, Endothelial cell, 24 h, hPAEC, 24 h treatment. On the procedure: The effect of the compounds disclosed herein on the viability, proliferation, and apoptosis of human pulmonary artery endothelial cells (“hPAECs,”) and human pulmonary artery smooth muscle cells (“hPASMCs”) was determined using the PrestoBlue Assay (viability), CYQuant Direct or BrdU Assay (proliferation) or Tunel Assay (apoptosis), as described below.
HPAECs (1×10^4 cells/well) or HPASMCs (2.5×10^3 cells/well) were seeded in 96-well plates for 24 h in full-serum tissue culture medium. The full medium was removed prior to treatment with a NAMPT inhibitor prepared in medium containing 0.1% serum. NAMPT inhibitors were solubilized in 100% DMSO, unless otherwise indicated, prior to preparation of the dose response curve in 100% DMSO. The treatment dose response curve was diluted in 0.1% serum tissue culture medium and administered to cells for 24 h. DMSO diluted in the same medium was used as the vehicle control. Cell viability was measured according to the manufacturer's protocol by adding the PrestoBlue Cell Viability Reagent (ThermoFisher Scientific, #A13261) to cells for 20 min at 37° C. in a tissue culture incubator, followed by reading fluorescence at ex560/em590. Cell proliferation was measured, either in the same wells or in separate experiments, by adding the CyQuant Direct Confirmation Reagent (ThermoFisher Scientific, #C35011) for 1 h at 37° C. in a tissue culture incubator, followed by reading fluorescence at ex485/em538. Proliferation was also measured, in separate experiments, using the BrdU Cell Proliferation Assay (Calbiochem, #QIA58). After treatment with a NAMPT inhibitor for 24 h, BrdU was added to the cells in the presence of the inhibitor, for an additional 24 h and BrdU incorporation was detected according to the manufacturer's protocol. Apoptosis was analyzed by seeding cells (1×10^5 cells/well) in 6-well plates for 24 h in full-serum medium, followed by treatment with a NAMPT inhibitor for 24 h in full-serum medium. Tunel staining and detection was performed using the Tunel Assay Kit (Abcam, #ab66110) according to the manufacturer's protocol.

In data set [2] the test system is vascular remodeling caused by PAH. The following applies: rat models; cited from earlier work.
For data set [3] the following is noted: in vivo; cited from earlier work.

For the compound `O=C(/C=C/c1cccnc1)NCCCCC1CCN(C(=O)c2ccccc2)CC1` [FK866], the IC50 in data set [1] was found to be 60.3 µM. For the same compound, the “vascular remodeling caused by PAH” value in data set [2] is “prevent and reverse”. Further, in data set [3], the renal toxicity entry is “exhibit renal toxicity”.

Source of the values: patent US11584766B2, “Nicotinamide phosphoribosyltransferase inhibitors and methods for use of the same” (THE TRUSTEES OF INDIANA UNIVERSITY, priority 2018, dated 2023).
